Source: PubChem BioAssay (NCI)
Values joined by “and” are separate entries in the source; they are usually repeats but may differ in a detail not shown here. Equal entries are not always repeated.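 Step 1: Grow cells in 96-well plates. Step 2: Expose to compound for 48 hours at 5 concentrations. Step 3: Interpolate endpoints linearly; if unreached, use highest concentration. GI50 is the concentration that inhibits growth by half. TGI is the concentration that stops growth completely.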

What was measured:
Test in all cases: DTP human tumour cell line panel, 48 h
HT29 colon = test system: HT29 colon
HS 578T breast = test system: HS 578T breast
COLO 205 colon = test system: COLO 205 colon
K-562 leukemia = test system: K-562 leukemia
OVCAR-5 ovarian = test system: OVCAR-5 ovarian
SF-268 CNS = test system: SF-268 CNS
LOX IMVI melanoma = test system: LOX IMVI melanoma
HCT-15 colon = test system: HCT-15 colon
UACC-257 melanoma = test system: UACC-257 melanoma
RPMI-8226 leukemia = test system: RPMI-8226 leukemia

Row | Structure (SMILES) | GI50 (HT29 colon) [µM] | TGI (HT29 colon) | GI50 (HS 578T breast) [µM] | TGI (HS 578T breast) | GI50 (COLO 205 colon) [µM] | TGI (COLO 205 colon) | GI50 (K-562 leukemia) [µM] | TGI (K-562 leukemia) [µM] | GI50 (OVCAR-5 ovarian) [µM] | TGI (OVCAR-5 ovarian) | GI50 (SF-268 CNS) [µM] | TGI (SF-268 CNS) [µM] | GI50 (LOX IMVI melanoma) [µM] | TGI (LOX IMVI melanoma) [µM] | GI50 (HCT-15 colon) [µM] | TGI (HCT-15 colon) [µM] | GI50 (UACC-257 melanoma) [µM] | TGI (UACC-257 melanoma) | GI50 (RPMI-8226 leukemia) [µM] | TGI (RPMI-8226 leukemia) [µM]
1 | CC(C)(C)OC(=O)NCCCCCCCCn1c2c(c3ccccc3c1=O)C(=O)c1ccccc1-2 | > 50 | > 50 µM | 7.04 | 27.5 µM | > 50 | > 50 µM | > 50 | > 50 | > 43 | > 50 µM | 19.5 | > 50 | > 32 | > 50 | > 50 | > 50 | > 50 | > 50 µM | > 50 | > 50
2 | Nc1ccc(C#Cc2cncnc2Nc2ccc(OCc3cccc(F)c3)c(Cl)c2)cc1 | 10.1 | > 25 µM | 6.07 | 24.2 µM | > 25 | > 25 µM | 11.4 | > 25 | > 25 | > 25 µM | 16.5 | > 25 | 12.8 | > 25 | 7.32 | > 25 | > 13.2 | > 25 µM | 15.3 | > 25
3 | CCc1cccc(CC)c1NC(=S)NC(=O)c1ccc(Br)cc1 |  | > 100 µM |  | > 100 µM |  | > 53.3 µM |  | > 100 |  | > 100 µM |  | > 100 |  | > 56.2 |  | > 78.4 |  | > 100 µM |  | > 100
4 | C#CCN1CCN(C(=S)N/N=C(\C)c2ccccn2)CC1 | 0.0028 | 3.74 µM and 8.33 µM | 1.94 | 6.34 µM and 6.02 µM | 0.00362 | 2.3 µM and 0.915 µM | 0.00334 | 14 | 0.14 | 4.65 µM and 3.11 µM |  | 16.5 | 1.6 | 6.8 | 0.019 | 4.19 | 0.00558 | 2.72 µM and 2.53 µM | 0.00287 | 
5 | COC(=O)c1c2c(c(C)[n+]([O-])c1C)C(=O)C=C(NCc1cccc(OC)c1)C2=O | 0.37 | 1.54 µM | 1.64 | 6.25 µM | 0.293 | 0.928 µM | 0.37 | 6.51 | 1.31 | 2.77 µM | 1.26 | 4.21 | 0.249 | 1.44 | 0.331 | 1.61 | 0.254 | 0.786 µM | 0.848 | 4.29
6 | C=C(CN1CCN(c2cccc(C(F)(F)F)c2)CC1)c1ccc(C(=O)Nc2ccccc2N)cc1 | 1.46 | > 50 µM | 0.491 | > 36.3 µM | 3.45 | > 23 µM | 0.185 | 8.27 | 6.63 | 26.4 µM | 1.43 | 10.8 | 0.56 | 6.25 | 0.48 | 3.62 | 0.762 | 17.8 µM | 0.322 | 2.49
7 | O=C(O)c1cc2ccccc2c(N=Nc2c([N+](=O)[O-])cc([N+](=O)[O-])cc2S(=O)(=O)O)c1O |  | > 100 µM |  | > 100 µM |  | > 100 µM |  | > 100 |  | > 100 µM |  | > 100 |  | > 100 |  | > 100 |  | > 100 µM |  | > 100
8 | Cc1cc(O)c2c(c1)C(=O)c1cc(O)cc(O)c1C2=O |  | > 100 µM | 26.2 | 82.4 µM |  | 42 µM | 28 | > 100 |  | > 100 µM |  | 97.5 |  | 47.3 |  | > 80.2 |  | > 100 µM |  | 99.8
9 | N#C/C(=C\c1ccc(Br)cc1)n1nnc2cccc(F)c21 |  |  | 2.5 | 8.14 µM | 1.98 | 5.02 µM | 0.386 | > 100 | 1.77 | 3.48 µM | 1.73 | 3.51 | 0.614 | 1.92 | 0.478 | 1.89 | 1.86 | 5.43 µM | 0.416 | 4.25
10 | O=C(O)CCC1COc2ccccc2O1 (centres undefined) |  | > 10 µM |  | > 10 µM |  | > 10 µM |  | > 10 |  | > 10 µM |  | > 10 |  | > 10 |  | > 10 |  | > 10 µM |  | > 10
11 | Nc1nc2c(c3ncccc13)C(c1cccc(Cl)c1)Cc1ncccc1-2 (centres undefined) | 0.805 | 10.8 µM | 3.83 | 34.4 µM | 1.53 | 3.94 µM | 0.53 | > 100 | 6.42 | > 100 µM | 3.79 | 32.1 | 5.12 | 19.5 | 1.22 | 20.6 | 15 | 44.5 µM | 4.19 | 41.1
12 | O=C1/C(=C/c2ccccc2)SC(=Nc2ccccc2)N1Nc1ccccc1 | 10.8 | > 100 µM | 29 | > 100 µM | 20.3 | > 100 µM | 6.08 | > 100 | 34.1 | > 100 µM | 31.3 | > 100 |  |  | 5.1 | > 100 | 14.2 | > 100 µM | 3.94 | 27.4
13 | C/C=C(\C)C(=O)O[C@@H]1C(O)[C@H]2OC(COC(=O)CCC(=O)CCCCCC[C@H](CCCCC)O[C@@H]3OC(C)[C@H](OC(C)=O)C(O)[C@H]3O2)[C@H]1OC(=O)/C=C/c1ccccc1 (some centres undefined) | < 0.01 | 0.652 µM | < 0.01 | 23.3 µM | < 0.01 | 1.79 µM | < 0.01 | > 100 | 2.16 | > 64.2 µM | 0.101 | 15.6 |  |  | 0.034 | > 100 | < 0.0109 | 1.04 µM | < 0.01 | 9.35
